Results as given in patent US20240325374A1, “INHIBITING INTRACELLULAR PATHOGENS” (THE RESEARCH INSTITUTE AT NATIONWIDE CHILDREN'S HOSPITAL, priority 2021, published 2024).

Legend:
[1] = system: S. typhimurium wild-type strain ATCC 14028; assay: Bacterial growth in macrophages (intracellular CFU), wild-type S. typhimurium in J774.1; format: cell-based
Source text: (§1) Hoang et al., International Journal of Pharmaceutics, 2014. 477(1-2): p. 334-343.
The J774.1 cells were infected with S. typhimurium and treated with KH-2.

S. typhi strain TY2 = assay: Bacterial growth in macrophages (intracellular CFU), S. typhi in J774.1; format: cell-based; settings: infected J774.1, 24 hrs post treatment
Source text: as §1

[2] = system: PLB-985 neutrophil-like cells; assay: Neutrophil reactive oxygen species production assay; format: cell-based; settings: various concentrations, luminol chemiluminescence for 1 hour
Experimental: PLB-985 cells that were cultured in RPMI supplemented with 10% FBS and penicillin-streptomycin (100 μg/ml each) were differentiated to a neutrophil-like phenotype by 6-day incubation in RPMI supplemented with 0.5% N,N-dimethylformamide, 0.5% FBS, 1% Nutridoma-SP (Roche; Mannheim, Germany), […] L-glutamine, and 1× penicillin/streptomycin. Media was replaced on day 3. On day 6 after differentiation, the medium was removed and replaced with 100 μl fresh medium containing different concentrations of KH-1-2. Cells in the positive control group were stimulated with 400 ng PMA/ml. Cells in the negative control group were treated with an equivalent concentration of DMSO. All groups were supplied with luminol (final concentration of 500 μM) and reactive oxygen species (ROS) production at 37° C. was monitored in triplicate by luminol-dependent chemiluminescence measured every 2 minutes for 1 hour using a Spectra Max M3 plate reader.

macrophages = assay: Toxicity of compound alone to macrophages by LDH release; format: cell-based; settings: effective concentrations
uninfected mice = assay: Toxicity study of KH-1-2 in vivo
Experimental: To examine the toxicity of KH-1-2, mice were intraperitoneally (i.p.) given KH-1-2 that was dissolved in 200 μl of polyethylene glycol 400 (PEG 400)-0.9% saline-ethanol (50:35:15) at 1 mg and 10 mg/kg of body weight per day for 12 consecutive days. Mice in the control groups received 200 μl of PEG-saline-ethanol. The experimental animals were observed daily throughout the study for clinical signs, and mortality. At the end of the experiment, mice were sacrificed, and liver, spleen, and kidney were collected, fixed in 4% paraformaldehyde for 72 hrs, processed and stained with hematoxylin and eosin (H&E) for histopathologic evaluation, which was performed at the Morphology Core at Nationwide Children's Hospital.
To examine the in vivo toxicity of KH-1-2, uninfected mice were given KH-1-2 intraperitoneally in 200 μl of polyethylene glycol 400 (PEG 400)-0.9% saline-ethanol (50:35:15) at 1 and 10 mg/kg body weight daily for 12 consecutive days. Mice in the control group were treated with an equal amount of diluent. Mice were monitored for clinical signs and at day 13, the liver, spleen, and kidney were collected for histopathologic evaluation.

[3] = system: ciprofloxacin-resistant S. typhimurium; assay: Mouse model of typhoid fever, ciprofloxacin-resistant S. typhimurium, survival; format: in vivo, BALB/c mice
Experimental: S. typhi is a human-restricted pathogen and is unable to colonize in mice. However, S. typhimurium causes a typhoid fever-like disease in mice and is widely used as a model to study human typhoid fever. Johnson, R., E. Mylona, and G. Frankel, Cell Microbiol, 2018. 20(9): p. e12939. […] Mice were infected with the ciprofloxacin-resistant S. typhimurium at a lethal dose of 10^6 CFU per mouse in 200 μl PBS via the i.p. route.
After determining the maximum tolerable dose of KH-1-2 by the i.p. route (10 mg/kg of body weight per day), the protective efficacy of KH-1-2 as a treatment for typhoid fever was evaluated. Mice (4 or 5 mice per group) were infected at day 0 with a lethal dose of the ciprofloxacin-resistant S. typhimurium isolate as described above. One day post-infection, the infected mice were given KH-1-2 prepared in 200 μl PBS at 0.05, 0.1, and 0.25 mg/kg body weight per day via i.p. delivery for 14 consecutive days.
We next sought to examine the effectiveness of delivering KH-1-2 for controlling a ciprofloxacin-resistant S. typhimurium isolate in a mouse model of typhoid fever. Mice were challenged with a lethal dose of bacteria via oral gavage and the infected mice were i.p. treated with KH-1-2 prepared in 200 μl PBS at 0.05, 0.1, and 0.25 mg/kg body weight/day for 14 consecutive days. […] As expected, all mice in the control group were moribund before or at day 12 post-infection.

[4] = system: S. typhimurium-infected J774.1 macrophages; assay: LDH release from Salmonella-infected macrophages; format: cell-based, murine; settings: 5 μM, 10 μM and 20 μM, after 24 h
Experimental: The strategy to identify host-targeted compounds is outlined in FIG. 1. Briefly, J774.1 macrophages in suspension at 3×10^6 cells/ml were infected with S. typhimurium at a multiplicity of infection (MOI) of 10 for 1 hour with orbital shaking at 80 rpm. […] The infected macrophages were resuspended in a medium containing 10 μg/ml gentamicin, seeded onto 96-well plates at 10^5 cells/well in 150 μl medium, and allowed to adhere to the well for three hours. The infected cells in each well were then treated with 25 μM of each compound from the ATP mimetic library using a multichannel pipette. […] After 24 hours of incubation, an LDH assay (Roche Applied Science, Indianapolis, IN) was performed using 50 μl of supernatant from each well. Absorbance at 570 nm was determined via a plate reader Spectra Max M3. […]
We developed a cell-based assay to screen 3000 compounds of an ATP-mimetic library purchased from ChemBridge using J774.1 macrophages for those that protect S. typhimurium-infected macrophages from death. The viability of Salmonella-infected J774.1 cells was determined by measuring LDH release from the infected cells. […] To examine whether the reduction in LDH release was due to the limited growth of the bacteria intracellularly, the infected cells were treated with various concentrations of KH-1, and the intracellular bacterial load was determined at 24 hours post-treatment. […]

S. typhimurium [5] = assay: Broth antibacterial assay (OD600 in LB); format: cell-based; settings: KH-2 10 μM, 20 μM and 50 μM
Experimental: An equivalent amount of DMSO was added in a control group. The bacterial growth was monitored at an optical density at 600 nm (OD600) at the indicated time points using a plate reader Spectra Max M3.
Overnight cultures of S. typhimurium were sub-cultured (1:100) in fresh Luria-Bertani (LB) broth in presence of different concentration of KH-2 and incubated at 37° C. The vehicle control (DMSO) groups were included. The experiments were performed in 96-well plates. The bacterial growth was monitored at different time-points by measuring optical density at 600 nm (OD600).

S. typhimurium [6] = assay: KH-2 protection of mice from lethal S. typhimurium infection, survival; format: in vivo, BALB/c mice; settings: 0.5, 1.0, 2.5 and 5 mg/kg/day i.p., day 1 to day 12, oral infection 10^6 bacteria/mouse, survival to day 14
Experimental: Pathogen-free 6- to 8-week-old female BALB/c mice were purchased from Harlan Sprague. Mice (3 mice/group, except the vehicle control group) were provided food and water ad libitum in sterile microisolator cages and allowed to acclimatize for 3 days before challenge. Mice were orally infected with 10^6 bacteria/mouse (day 0) in 200 μl PBS. The infected mice were intraperitoneally given KH-2 at different doses (5 mg, 2.5 mg, 1 mg, and 0.5 mg/kg body weight/day) in 200 μl PBS from day 1 to day 12 post infection. Vehicle (DMSO) was added as the control group. The mice were monitored for survival until day 14 post infection. […] A mouse model of typhoid fever was used to assess the efficacy of KH-2 in increasing the survival rate of infected mice.

Row | SMILES | EC50 ([1]; Salmonella enterica, infected J774.1 cells, CFU at 24 hrs post treatment, % of DMSO control, read-out: half maximal effective concentration (EC50) on S. typhimurium) | reduction in bacterial load in infected macrophages ([1]; in vitro treatment of Salmonella infection) | intracellular bacterial growth in combination with sub-optimal ciprofloxacin ([1]; infected macrophages, with sub-optimal dose of ciprofloxacin, 24 hours post-treatment) | intracellular growth of S. typhi, compared with KH-1 (S. typhi strain TY2) | reactive oxygen species (ROS) production [2] | toxicity to macrophages as measured by LDH release (macrophages) | liver histopathology (uninfected mice; 1 mg/kg i.p. daily) | liver histopathology (uninfected mice; 10 mg/kg i.p. daily) | maximum tolerable dose (uninfected mice; i.p. route, mice) | clinical signs (uninfected mice; uninfected mice, i.p., 1 and 10 mg/kg body weight daily, 12 consecutive days) | immune cell migration and apoptosis in liver, spleen, kidney (uninfected mice; uninfected mice, i.p., 1 and 10 mg/kg daily, 12 days) | histologic evaluation of the liver, spleen, and kidney (uninfected mice; uninfected mice, i.p., 1 and 10 mg/kg daily, 12 days, organs at day 13) | survival ([3]; 0.1 mg/kg body weight/day i.p., 14 consecutive days, lethal dose 10^6 CFU/mouse) | survival versus control untreated group ([3]; 0.05, 0.1 and 0.25 mg/kg body weight/day i.p., 14 days, p<0.05) | lactate dehydrogenase (LDH) release from Salmonella infected J774.1 macrophages [4] | growth of Salmonella in J774.1 macrophages (intracellular CFU) ([1]; KH-2 5 μM, 10 μM and 20 μM, after 24 hours) | growth of Salmonella in Luria-Bertani (LB) bacterial growth media (OD600) (S. typhimurium [5]) | survival of mice after lethal Salmonella infection (S. typhimurium [6])
1 | O=C1c2oc3ccccc3c(=O)c2C(c2cccc(Oc3ccccc3)c2)N1Cc1ccc(F)cc1 (stereo not drawn) [KH-1-2, 2-(4-fluorobenzyl)-1-(3-phenoxyphenyl)-1,2-dihydrochromeno[2,3-c] pyrrole-3,9-dione] | 2600 nM | 8- to 10 fold | further reduces Salmonella growth inside macrophages | more effective at reducing the intracellular growth of S. typhi | does not involve in induction of reactive oxygen species (ROS) production | not toxic to macrophages at the effective concentrations | no adverse effects | minimal alterations including increased infiltration of lymphocytic cells and neutrophils | 10 mg/kg of body weight per day | no adverse clinical signs | No increase in immune cell migration or significant apoptosis | no dose-related macroscopic or microscopic findings | 60% | significantly greater survival | – | – | – | –
2 | COC(=O)c1cccc(COC(=O)c2cc(O)nc3ccccc23)c1 [KH-2, 3-(methoxycarbonyl)benzyl 2-hydroxy-4-quinolinecarboxylate] | – | – | – | – | – | – | – | – | – | – | – | – | – | – | reduced lactate dehydrogenase (LDH) release from Salmonella infected J774.1 macrophages | inhibits the growth of Salmonella in J774.1 macrophages | does not inhibit the growth of Salmonella in Luria-Bertani (LB) bacterial growth media | protects mice from lethal Salmonella infection
